Holding throughout (format): biochemical
For one experiment, the target named is T1, KDM2B (FBXL10) (Homo sapiens, UniProt Q8NHM5).
T1 construct: KDM2B; BPS,; 1-650; Bac; purchased BPS Bioscience, US; host or cells: baculovirus system
T1 sequence (Q8NHM5 1-650): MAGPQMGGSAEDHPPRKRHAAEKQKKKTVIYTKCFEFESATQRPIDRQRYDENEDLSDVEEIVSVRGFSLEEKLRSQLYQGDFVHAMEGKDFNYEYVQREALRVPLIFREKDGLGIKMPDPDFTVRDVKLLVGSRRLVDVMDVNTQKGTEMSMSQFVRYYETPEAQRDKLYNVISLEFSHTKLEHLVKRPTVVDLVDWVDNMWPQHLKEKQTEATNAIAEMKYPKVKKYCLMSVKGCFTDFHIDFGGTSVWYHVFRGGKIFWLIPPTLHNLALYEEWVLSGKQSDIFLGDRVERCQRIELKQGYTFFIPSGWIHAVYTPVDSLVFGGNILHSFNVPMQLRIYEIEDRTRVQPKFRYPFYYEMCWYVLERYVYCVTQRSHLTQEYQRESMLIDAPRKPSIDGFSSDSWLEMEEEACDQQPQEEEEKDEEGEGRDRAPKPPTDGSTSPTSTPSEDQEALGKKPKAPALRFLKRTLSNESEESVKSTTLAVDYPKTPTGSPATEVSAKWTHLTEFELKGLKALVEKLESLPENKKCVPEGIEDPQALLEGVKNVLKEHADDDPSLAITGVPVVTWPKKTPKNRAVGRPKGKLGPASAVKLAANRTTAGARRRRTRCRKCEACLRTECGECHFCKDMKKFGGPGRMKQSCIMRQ
Nature of the experiment: Histone lysine demethylase AlphaLISA assay, KDM2B. The procedure: (§1) The compounds of the application, or a pharmaceutically acceptable salt, or solvate, or prodrug thereof, are tested in an in vitro AlphaLISA assay. Enzymes are dissolved in enzyme buffer and incubated before they are added to DMSO solutions of compounds of the application, or a pharmaceutically acceptable salt, or solvate, or prodrug thereof, in enzyme buffer. The reaction mixture is then incubated for an additional period of time before substrate solution is added and then the resulting mixture again incubated. Acceptor beads and suspended Epigenetic Buffer from stock are added and the suspension is again incubated before a suspension of streptavidin donor beads in Epigenetic Buffer is added. After an additional period of incubation, the plates are read.
(§2) The ability of compounds of the application to inhibit the histone lysine demethylase activity in vitro of different enzymes was determined.
(§3) The reaction mixture was incubated for another 10 minutes before 5 μL of substrate solution was added and the resulting mixture was then incubated at room temperature. […] After incubation at room temperature in the dark, the plates were read.
(§4) Enzyme Buffer: 50 mM Hepes (pH 7.4-8.0), 0.003-0.01% Tween-20, 0.1% BSA; 5 μM (NH4)2Fe(SO4)2.

The next experiment addresses T2, KDM4C (JMJD2C) (Homo sapiens, UniProt Q9H3R0).
T2 construct: KDM4C; BRIC, Denmark; 1-349; E. coli; host or cells: E. coli
T2 sequence (Q9H3R0 1-349): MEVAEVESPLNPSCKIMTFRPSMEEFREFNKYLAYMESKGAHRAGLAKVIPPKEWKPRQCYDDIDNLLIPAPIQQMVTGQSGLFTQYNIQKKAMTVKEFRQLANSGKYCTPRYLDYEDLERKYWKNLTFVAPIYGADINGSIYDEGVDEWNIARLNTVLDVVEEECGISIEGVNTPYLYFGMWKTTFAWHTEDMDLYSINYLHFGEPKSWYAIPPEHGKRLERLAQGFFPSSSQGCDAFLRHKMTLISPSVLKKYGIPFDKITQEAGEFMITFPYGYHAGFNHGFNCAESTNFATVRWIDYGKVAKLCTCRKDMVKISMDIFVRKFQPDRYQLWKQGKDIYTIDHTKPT
The experiment is described as follows: Histone lysine demethylase AlphaLISA assay, KDM4C. The procedure:
as §1, §2, §3, §4
(In general: Bead proximity is the source of the signal in Alpha formats.)

The target of a further experiment is T3, PHF8 (KDM7) (Homo sapiens, UniProt Q9UPP1).
T3 construct: KDM7 (PHF8); BRIC; 1-1322; Bac
T3 sequence (Q9UPP1 37-440 limits assumed): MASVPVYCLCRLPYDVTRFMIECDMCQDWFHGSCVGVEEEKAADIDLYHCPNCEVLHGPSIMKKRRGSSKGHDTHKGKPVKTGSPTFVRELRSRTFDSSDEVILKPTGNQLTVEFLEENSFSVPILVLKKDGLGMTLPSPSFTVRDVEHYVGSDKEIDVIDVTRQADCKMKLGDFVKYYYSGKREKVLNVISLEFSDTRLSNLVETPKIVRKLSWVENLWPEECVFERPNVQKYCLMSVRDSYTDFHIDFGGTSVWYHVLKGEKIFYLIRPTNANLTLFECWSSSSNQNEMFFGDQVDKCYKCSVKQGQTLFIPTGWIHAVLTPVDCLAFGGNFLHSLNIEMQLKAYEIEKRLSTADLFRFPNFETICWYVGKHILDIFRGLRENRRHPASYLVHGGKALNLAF
Nature of the experiment: Histone lysine demethylase AlphaLISA assay, PHF8. The procedure:
as §1, §2, §3, §4

The target in a further experiment is T4, KDM5B (PLU-1) (Homo sapiens, UniProt Q9UGL1).
T4 construct: BRIC; 1-809; E. coli; host or cells: E. coli
T4 sequence (Q9UGL1 1-809): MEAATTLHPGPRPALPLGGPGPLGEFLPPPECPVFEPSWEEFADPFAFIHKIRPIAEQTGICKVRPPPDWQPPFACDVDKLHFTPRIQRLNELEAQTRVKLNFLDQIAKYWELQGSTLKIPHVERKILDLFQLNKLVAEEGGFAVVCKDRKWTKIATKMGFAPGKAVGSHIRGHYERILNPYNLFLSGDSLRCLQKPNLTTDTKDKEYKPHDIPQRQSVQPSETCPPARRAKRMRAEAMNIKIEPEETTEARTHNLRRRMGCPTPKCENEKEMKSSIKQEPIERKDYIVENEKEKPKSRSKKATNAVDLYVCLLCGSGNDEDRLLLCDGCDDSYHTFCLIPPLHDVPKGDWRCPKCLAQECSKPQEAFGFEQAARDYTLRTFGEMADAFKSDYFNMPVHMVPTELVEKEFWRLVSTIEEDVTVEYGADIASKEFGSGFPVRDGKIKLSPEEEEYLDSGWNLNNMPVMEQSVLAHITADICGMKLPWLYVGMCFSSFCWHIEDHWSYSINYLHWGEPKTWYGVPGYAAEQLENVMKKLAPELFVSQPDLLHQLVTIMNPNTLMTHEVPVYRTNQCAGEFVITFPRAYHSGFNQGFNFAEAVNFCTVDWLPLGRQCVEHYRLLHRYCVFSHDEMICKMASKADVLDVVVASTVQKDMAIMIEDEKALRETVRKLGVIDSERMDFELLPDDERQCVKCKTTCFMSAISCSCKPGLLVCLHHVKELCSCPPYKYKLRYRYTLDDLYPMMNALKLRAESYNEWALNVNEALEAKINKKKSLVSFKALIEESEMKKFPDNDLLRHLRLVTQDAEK
The experiment is described as follows: Histone lysine demethylase AlphaLISA assay, KDM5B. The procedure: as §1, §2, §3, §4

Where [1] appears, read: AlphaLISA, in vitro, read-out: HDME Inhibition KDM2B.
Setting [2] is: AlphaLISA assay, read-out: HDME Inhibition KDM4C (IC50).
The mark [3] stands for this setting: AlphaLISA, in vitro, read-out: HDME Inhibition KDM4C.
[4] abbreviates: AlphaLISA, in vitro, read-out: HDME Inhibition PHF8.
Where [5] appears, read: AlphaLISA assay, read-out: HDME Inhibition KDM5B (IC50).
Setting [6] is: AlphaLISA, in vitro, read-out: HDME Inhibition KDM5B.
Where [7] appears, read: AlphaLISA assay, read-out: HDME Inhibition PHF8 (IC50).

Where two headings read alike, the source gives them in different places.

Turning to `Cc1cc(C(=O)O)cc(CNCc2nccn2CCc2ccccc2)n1` [Compound 61, 2-methyl-6-[({[1-(2-phenylethyl)-1H-imidazol-2-yl]methyl}amino)methyl]pyridine-4-carboxylic acid], the IC50 on KDM2B (FBXL10) (setting [1]) is 4.18 µM; on KDM4C (JMJD2C) (setting [2]), above 10 µM; on KDM4C (JMJD2C) (setting [3]) it was above 10 µM; at PHF8 (KDM7) (setting [4]), 2.55 µM; on KDM5B (PLU-1) (setting [5]), above 10 µM; at KDM5B (PLU-1) (setting [6]) it was above 10 µM.

For the compound `Cc1cc(C(=O)O)cc(CNCc2nnc(C(C)(C)C)n2Cc2ccc(F)cc2)n1` [Compound 49, 2-{[({5-tert-butyl-4-[(4-fluorophenyl)methyl]-4H-1,2,4-triazol-3-yl}methyl)amino]methyl}-6-methylpyridine-4-carboxylic acid], the IC50 was 0.838 µM at KDM2B (FBXL10) (setting [1]); above 10 µM at KDM4C (JMJD2C) (setting [2]); above 10 µM on KDM4C (JMJD2C) (setting [3]); 1.11 µM on PHF8 (KDM7) (setting [4]); above 10 µM at KDM5B (PLU-1) (setting [5]); above 10 µM on KDM5B (PLU-1) (setting [6]).

For `O=C(O)c1cc(CO)nc(CNCc2nccn2Cc2ccc(F)cc2)c1` [Compound 81, 2-{[({1-[(4-fluorophenyl)methyl]-1H-imidazol-2-yl}methyl)amino]methyl}-6-(hydroxymethyl)pyridine-4-carboxylic acid], the IC50 at KDM2B (FBXL10) (setting [1]) amounted to 0.14 µM; at KDM4C (JMJD2C) (setting [3]), 0.823 µM; at PHF8 (KDM7) (setting [4]) it was 0.334 µM; at KDM5B (PLU-1), 0.021 µM.

As to `NCc1cc(C(=O)O)cc(CN)n1` [Compound 110, 2,6-bis(aminomethyl)pyridine-4-carboxylic acid], the IC50 on KDM2B (FBXL10) (AlphaLISA assay, read-out: HDME Inhibition KDM2B (IC50)) is above 10 µM; at KDM2B (FBXL10) (setting [1]), above 10 µM; at KDM4C (JMJD2C) (setting [2]), above 10 µM; on KDM4C (JMJD2C) (setting [3]), above 10 µM; on PHF8 (KDM7) (setting [7]), above 10 µM; on PHF8 (KDM7) (setting [4]) it was above 10 µM. The IC50 at KDM5B (PLU-1) (setting [5]) and at KDM5B (PLU-1) (setting [6]) was above 10 µM throughout.

As to `O=C(O)c1cc(CO)nc(CNCc2nncn2Cc2ccc(F)cc2)c1` [Compound 62, 2-{[({4-[(4-fluorophenyl)methyl]-4H-1,2,4-triazol-3-yl}methyl)amino]methyl}-6-(hydroxymethyl)pyridine-4-carboxylic acid], the IC50 worked out at 0.244 µM at KDM2B (FBXL10) (setting [1]), 7.37 µM at KDM4C (JMJD2C) (setting [3]), 0.307 µM at PHF8 (KDM7) (setting [4]) and 0.231 µM against KDM5B (PLU-1).

As for `Cc1cc(C(=O)O)cc(CNCCc2nncn2Cc2ccc(C(F)(F)F)cc2)n1` [Compound 60, 2-methyl-6-({[2-(4-{[4-(trifluoromethyl)phenyl]methyl}-4H-1,2,4-triazol-3-yl)ethyl]amino}methyl)pyridine-4-carboxylic acid], the IC50 is 1.62 µM on KDM2B (FBXL10) (setting [1]); above 10 µM at KDM4C (JMJD2C) (setting [2]); above 10 µM at KDM4C (JMJD2C) (setting [3]); above 10 µM on PHF8 (KDM7) (setting [7]); above 10 µM on PHF8 (KDM7) (setting [4]); 0.526 µM at KDM5B (PLU-1) (setting [6]).

With `COc1ccc(OCc2ccccc2)c(CNCc2cc(C(=O)O)cc(CO)n2)n1` [Compound 93, 2-[({[3-(Benzyloxy)-6-methoxypyridin-2-yl]methyl}amino)methyl]-6-(hydroxymethyl)pyridine-4-carboxylic acid], the IC50 at KDM2B (FBXL10) (setting [1]) was 0.032 µM; at KDM4C (JMJD2C) (setting [2]), above 10 µM; on KDM4C (JMJD2C) (setting [3]), above 10 µM; at PHF8 (KDM7) (setting [4]), 1.48 µM; on KDM5B (PLU-1) (setting [5]), above 10 µM; at KDM5B (PLU-1) (setting [6]) it was above 10 µM.

For the compound `Cc1cc(C(=O)O)cc(CNCc2nnc(CCN(C)C)n2Cc2ccc(F)cc2)n1` [Compound 46, 2-{[({5-[2-(dimethylamino)ethyl]-4-[(4-fluorophenyl)methyl]-4H-1,2,4-triazol-3-yl}methyl)amino]methyl}-6-methylpyridine-4-carboxylic acid], the IC50 at KDM2B (FBXL10) (setting [1]) was 2.27 µM; at KDM4C (JMJD2C) (setting [2]), above 10 µM; on KDM4C (JMJD2C) (setting [3]), above 10 µM; at PHF8 (KDM7) (setting [4]), 2.28 µM; at KDM5B (PLU-1) (setting [5]), above 10 µM; on KDM5B (PLU-1) (setting [6]), above 10 µM.

For `Cc1cc(C(=O)O)cc(CNCc2nncn2CCc2cc(Cl)cc(Cl)c2)n1` [Compound 51, 2-{[({4-[2-(3,5-dichlorophenyl)ethyl]-4H-1,2,4-triazol-3-yl}methyl)amino]methyl}-6-methylpyridine-4-carboxylic acid], the IC50 at KDM2B (FBXL10) (setting [1]) is 2.83 µM; on KDM4C (JMJD2C) (setting [2]), above 10 µM; on KDM4C (JMJD2C) (setting [3]), above 10 µM; at PHF8 (KDM7) (setting [4]), 3.88 µM; at KDM5B (PLU-1) (setting [5]), above 10 µM; on KDM5B (PLU-1) (setting [6]), above 10 µM.

For the compound `CCc1cnc(CNCc2cc(C(=O)O)cc(C)n2)n1CCc1ccccc1` [Compound 54, 2-[({[5-ethyl-1-(2-phenylethyl)-1H-imidazol-2-yl]methyl}amino)methyl]-6-methylpyridine-4-carboxylic acid], the IC50 is 1.14 µM at KDM2B (FBXL10) (setting [1]); above 10 µM on KDM4C (JMJD2C) (setting [2]); above 10 µM on KDM4C (JMJD2C) (setting [3]); 1.19 µM on PHF8 (KDM7) (setting [4]); above 10 µM on KDM5B (PLU-1) (setting [5]); above 10 µM on KDM5B (PLU-1) (setting [6]).

In the case of `CCc1cnc(CNCc2cc(C(=O)O)cc(C)n2)n1Cc1cccs1` [Compound 115, 2-[({[5-ethyl-1-(thiophen-2-ylmethyl)-1H-imidazol-2-yl]methyl}amino)methyl]-6-methylpyridine-4-carboxylic acid], the IC50 at KDM2B (FBXL10) (setting [1]) is 0.053 µM; on KDM4C (JMJD2C) (setting [2]), above 10 µM; at KDM4C (JMJD2C) (setting [3]), above 10 µM; on PHF8 (KDM7) (setting [4]), 0.506 µM; at KDM5B (PLU-1) (setting [5]) it was above 10 µM; at KDM5B (PLU-1) (setting [6]), above 10 µM.

As for `CCc1cnc(CNCc2cc(C(=O)O)cc(CO)n2)n1Cc1ccc(F)cc1` [Compound 100, 2-{[({5-ethyl-1-[(4-fluorophenyl)methyl]-1H-imidazol-2-yl}methyl)amino]methyl}-6-(hydroxymethyl)pyridine-4-carboxylic acid], the IC50 on KDM2B (FBXL10) (setting [1]) was 0.07 µM; on KDM4C (JMJD2C) (setting [2]) it was above 10 µM; on KDM4C (JMJD2C) (setting [3]), above 10 µM; at PHF8 (KDM7) (setting [4]) it was 1.15 µM; against KDM5B (PLU-1) it was 0.635 µM.

The values above are taken from patent US9802941B2, “Compounds and methods for inhibiting histone demethylases” (Gilead Sciences, Inc., priority 2014, dated 2017).
